Laboratory results: PubChem BioAssay (NCI)
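Briefly, cells in 96-well plates were exposed to five compound concentrations for 48 h, and endpoints were estimated by linear interpolation. TGI denotes the concentration required for complete inhibition of growth.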

Tests used:
Test in all cases: growth of human tumour cells (NCI), 48 h
[1] = test system: OVCAR-3 ovarian
[2] = test system: SK-OV-3 ovarian
[3] = test system: SNB-19 CNS
[4] = test system: K-562 leukemia
[5] = test system: RPMI-8226 leukemia
[6] = test system: NCI/ADR-RES ovarian
[7] = test system: KM12 colon
[8] = test system: TK-10 renal
[9] = test system: OVCAR-8 ovarian
[10] = test system: MCF7 breast
[11] = test system: MOLT-4 leukemia
[12] = test system: MDA-MB-231 breast
[13] = test system: ACHN renal
[14] = test system: T-47D breast
[15] = test system: UACC-257 melanoma
[16] = test system: SR leukemia
[17] = test system: UO-31 renal
[18] = test system: UACC-62 melanoma
[19] = test system: SW-620 colon
[20] = test system: SNB-75 CNS
[21] = test system: SN12C renal
[22] = test system: EKVX NSCLC
[23] = test system: DU-145 prostate
[24] = test system: BT-549 breast
[25] = test system: HT29 colon
[26] = test system: MDA-MB-435
[27] = test system: IGROV1 ovarian
[28] = test system: SK-MEL-2 melanoma
[29] = test system: OVCAR-4 ovarian
[30] = test system: U251 CNS
[31] = test system: NCI-H522 lung
[32] = test system: CAKI-1 renal
[33] = test system: PC-3 prostate
[34] = test system: CCRF-CEM leukemia
[35] = test system: SF-295 CNS
[36] = test system: SF-539 CNS
[37] = test system: HOP-92 NSCLC
[38] = test system: NCI-H460 lung
[39] = test system: 786-0 renal
[40] = test system: HOP-62 NSCLC
[41] = test system: A498 renal
[42] = test system: A549 NSCLC
[43] = test system: NCI-H226 lung
[44] = test system: LOX IMVI melanoma
[45] = test system: HCT-116 colon
[46] = test system: HCT-15 colon
[47] = test system: COLO 205 colon
[48] = test system: SK-MEL-28 melanoma
[49] = test system: M14 melanoma
[50] = test system: OVCAR-5 ovarian
[51] = test system: SF-268 CNS
[52] = test system: HL-60(TB) leukemia
[53] = test system: HS 578T breast
[54] = test system: NCI-H23 lung
[55] = test system: MDA-N
[56] = test system: MALME-3M melanoma
[57] = test system: HCC-2998 colon
[58] = test system: RXF 393 renal
[59] = test system: SK-MEL-5 melanoma

## CCCCCN1C(=O)C(Cc2ccccc2)N=C(c2ccc(O)cc2)c2cc(Cl)ccc21 (centres undefined)
[1]
  TGI: 45.1 µM
[2]
  TGI: 41.1 µM
[3]
  TGI: 33.7 µM
[4]
  TGI: 12.3 µM
[5]
  TGI: 12.1 µM
[6]
  TGI: 25.4 µM
[7]
  TGI: 30.3 µM
[8]
  TGI: 31.2 µM
[9]
  TGI: 25.8 µM
[10]
  TGI: 24.8 µM
[11]
  TGI: 26.3 µM
[12]
  TGI: 35.9 µM
[13]
  TGI: 25.9 µM
[14]
  TGI: 12.4 µM
[15]
  TGI: 23.7 µM
[16]
  TGI: 15.3 µM
[17]
  TGI: 25.3 µM
[18]
  TGI: 25 µM
[19]
  TGI: 26.8 µM
[20]
  TGI: 23.7 µM
[21]
  TGI: > 39.6 µM
[22]
  TGI: 25.6 µM
[23]
  TGI: 30.9 µM
[24]
  TGI: 33.4 µM
[25]
  TGI: 25.6 µM
[26]
  TGI: 24.4 µM
[27]
  TGI: 23.9 µM
[28]
  TGI: 34.4 µM
[29]
  TGI: 22.1 µM
[30]
  TGI: 27.2 µM
[31]
  TGI: 17.2 µM
[32]
  TGI: 35.1 µM
[33]
  TGI: 27.3 µM
[34]
  TGI: > 100 µM
[35]
  TGI: 20.7 µM
[36]
  TGI: 38.9 µM
[37]
  TGI: 25 µM
[38]
  TGI: 24.3 µM
[39]
  TGI: 27.3 µM
[40]
  TGI: 52.8 µM
[41]
  TGI: > 48.4 µM
[42]
  TGI: 31.7 µM
[43]
  TGI: 26.3 µM
[44]
  TGI: 18.5 µM
[45]
  TGI: 21.5 µM
[46]
  TGI: 21.2 µM
[47]
  TGI: 10.1 µM
[48]
  TGI: 29.7 µM
[49]
  TGI: 34.4 µM
[50]
  TGI: 48.3 µM
[51]
  TGI: 25.3 µM
[52]
  TGI: > 100 µM
[53]
  TGI: 32.4 µM
[54]
  TGI: 17.7 µM
[55]
  TGI: > 40.3 µM
[56]
  TGI: 23.6 µM

## COC(C)=NCCC1=CCCCC1
[1]
  TGI: > 100 µM
[2]
  TGI: > 100 µM
[3]
  TGI: > 100 µM
[57]
  TGI: > 100 µM
[4]
  TGI: > 100 µM
[5]
  TGI: > 100 µM
[6]
  TGI: > 100 µM
[7]
  TGI: > 100 µM
[8]
  TGI: > 100 µM
[9]
  TGI: > 100 µM
[10]
  TGI: > 100 µM
[11]
  TGI: > 100 µM
[12]
  TGI: > 100 µM
[13]
  TGI: > 100 µM
[14]
  TGI: > 100 µM
[15]
  TGI: > 100 µM
[16]
  TGI: > 100 µM
[17]
  TGI: > 100 µM
[18]
  TGI: > 100 µM
[19]
  TGI: > 100 µM
[20]
  TGI: > 100 µM
[58]
  TGI: > 100 µM
[22]
  TGI: > 100 µM
[23]
  TGI: > 100 µM
[24]
  TGI: > 100 µM
[25]
  TGI: > 100 µM
[26]
  TGI: > 100 µM
[27]
  TGI: > 100 µM
[59]
  TGI: > 100 µM
[28]
  TGI: > 100 µM
[29]
  TGI: > 100 µM
[30]
  TGI: > 100 µM
[31]
  TGI: > 100 µM
[32]
  TGI: > 100 µM
[33]
  TGI: > 100 µM
[35]
  TGI: > 100 µM
[37]
  TGI: > 100 µM
[38]
  TGI: > 100 µM
[39]
  TGI: > 100 µM
[40]
  TGI: > 100 µM
[41]
  TGI: > 100 µM
[42]
  TGI: > 100 µM
[45]
  TGI: > 100 µM
[46]
  TGI: > 100 µM
[47]
  TGI: > 100 µM
[48]
  TGI: > 100 µM
[49]
  TGI: > 100 µM
[50]
  TGI: > 100 µM
[51]
  TGI: > 100 µM
[53]
  TGI: > 100 µM
[54]
  TGI: > 100 µM
[55]
  TGI: > 100 µM
[56]
  TGI: > 100 µM
